Laboratory results taken from US20170321285A1, “NLRC5 AS A BIOMARKER FOR CANCER PATIENTS AND A TARGET FOR CANCER THERAPY” (THE TEXAS A&M UNIVERSITY SYSTEM, priority 2016, published 2017).

system: hla-b promoter; assay: hla-b promoter dual-luciferase reporter assay with nlrc5 mutant plasmids in HEK293T cells; assay type: cell-based, human; conditions: 100 ng mutant plasmid with HLA-B250 luciferase reporter, 48 h post-transfection (FIG. 3H)
Text: FIGS. 3A-3J. Copy number loss and somatic mutations in nlrc5 are associated with reduced MHC class I gene expressions. FIG. 3A. Percentage of cancer patients who carry nlrc5 copy number (CN) loss among 20 TCGA tumor types. Based on GISTIC values, samples were classified into nlrc5 diploid group and CN loss group: GISTIC 0, diploid; −1 and −2, CN loss. FIG. 3B. Percentage of cancer patients who carry copy number (CN) loss of various MHC class I-related genes for 10 TCGA tumor types for which data are available (bladder, breast, colon, head/neck, lung adeno, lung squamous, ovarian, prostate, rectal and uterine cancer, top) and ovarian cancer (bottom). Statistical significance was determined by chi-square test. *: p<0.01, **: p<0.0001. FIG. 3C. Heatmap showing gene expression of nlrc5 and hla-b in nlrc5 diploid group (n=2028) or CN loss group (n=890) for 17 TCGA tumor types in which the nlrc5 promoter is not methylated. FIG. 3D. The box plots showing nlrc5 and MHC class I-related gene expression in the nlrc5 diploid group or CN loss group in breast cancer patients. FIG. 3E. Pie chart representing the percentage distribution of different types of mutations in nlrc5 in various cancer patients (n=7752). FIG. 3F. Mutation rate in 20 TCGA tumor types. FIG. 3G. Representation of nlrc5 indicating 13 mutations found in at least 2 different cancer patients. FIG. 3H. HEK293T cells were co-transfected with either empty control vector or the respective nlrc5 mutant plasmid with hla-b reporter plasmid and hla-b promoter activity was assessed by the dual-luciferase assay and normalized against Renilla […] activity. Data are representative of two independent experiments performed in duplicate and is plotted as fold induction with respect to the control vector. Error bar: ±sd. FIG. 3I. […] FIG. 3J. Box plots for the expression level of MHC class I-related genes normalized by the expression level of nlrc5 in 20 TCGA tumor types that are either nlrc5 wild-type or nlrc5 mutant. FIGS. 3D-3J. The horizontal line corresponds to the median, the box to the 25th-75th percentile and the lines to the confidence interval (5th-95th percentile).
The expression vector for human gfp-nlrc5 in pcDNA3.1 was previously described. The reporter gene construct used for MHC class I promoter activity (HLA-B250) was also previously described. Selected nlrc5 mutants were constructed using pcDNA3.1-gfp-nlrc5 by site-directed mutagenesis using the primers listed in Table 3. All the plasmids were confirmed by sequencing (Gene Technologies Laboratory).
HEK293T cells were cultured in DMEM supplemented with 10% FBS and penicillin/streptomycin (Life Technologies) at 37° C. with 5% CO2. Cells were transiently transfected using polyethylenimine at a DNA/polyethylenimine ratio of 1:3 in serum-free media. For luciferase assay, HEK293T cells were split at a density of 5×10^4 cells/well into 24-well plates 1 day prior to transfection. Cells were co-transfected using 100 ng of gfp-nlrc5 or 100 ng of the specified nlrc5 mutant plasmids along with 100 ng of HLA-B250 luciferase reporter construct. 20 ng promoterless Renilla luciferase vector (pRL-null; Promega) were included for normalization of transfection efficiency. Cells were harvested 48 h post-transfection, and cell lysates were analyzed using the Dual-Luciferase Reporter Assay System (Promega) according to the manufacturer's instructions.

Row | Molecule | activity of the NLRC5 protein as compared to the wild-type NLRC5 protein (induction of hla-b promoter activity)
1 | R262C: NLRC5 protein mutant found in cancer patients, expressed from gfp-nlrc5 vector made by site-directed mutagenesis | reduces the activity
2 | R574H: NLRC5 protein mutant found in cancer patients, expressed from gfp-nlrc5 vector made by site-directed mutagenesis | does not reduce or increases the activity
3 | T1173M: NLRC5 protein mutant found in cancer patients, expressed from gfp-nlrc5 vector made by site-directed mutagenesis | does not reduce or increases the activity
4 | Q1847*: NLRC5 nonsense mutant found in cancer patients, expressed from gfp-nlrc5 vector made by site-directed mutagenesis | reduces the activity
5 | R1830C: NLRC5 protein mutant found in cancer patients, expressed from gfp-nlrc5 vector made by site-directed mutagenesis | reduces the activity
6 | D884N: NLRC5 protein mutant found in cancer patients, expressed from gfp-nlrc5 vector made by site-directed mutagenesis | does not reduce or increases the activity
7 | L181P: NLRC5 protein mutant found in cancer patients, expressed from gfp-nlrc5 vector made by site-directed mutagenesis | reduces the activity
8 | S496F: NLRC5 protein mutant found in cancer patients, expressed from gfp-nlrc5 vector made by site-directed mutagenesis | does not reduce or increases the activity
9 | R550W: NLRC5 protein mutant found in cancer patients, expressed from gfp-nlrc5 vector made by site-directed mutagenesis | reduces the activity
10 | A1512T: NLRC5 protein mutant found in cancer patients, expressed from gfp-nlrc5 vector made by site-directed mutagenesis | does not reduce or increases the activity
11 | A737D: NLRC5 protein mutant found in cancer patients, expressed from gfp-nlrc5 vector made by site-directed mutagenesis | reduces the activity
12 | R386W: NLRC5 protein mutant found in cancer patients, expressed from gfp-nlrc5 vector made by site-directed mutagenesis | does not reduce or increases the activity

system: cancer cell lines; assay: not given; conditions: 3 μM 5-azacytidine, various cancer cell lines, qPCR (FIG. 2A)

Row | Molecule | expression of hla-b | expression of nlrc5
13 | Nc1ncn([C@@H]2O[C@H](CO)[C@@H](O)[C@H]2O)c(=O)n1 [5-Azacitidine, 4-amino-1-β-D-ribofuranosyl-1,3,5-triazin-2(1H)-one] | upregulation | upregulation
